Among the test systems are COLO 205 colon; SF-295 CNS; NCI/ADR-RES ovarian; NCI-H522 lung; SNB-75 CNS; SF-268 CNS; K-562 leukemia; HOP-62 NSCLC.
What all share (test): NCI tumour cell line growth inhibition, 48 h

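Assay format: 96-well plates, 48-hour exposure. Here, GI50 denotes the concentration required for 50% inhibition of growth. TGI: total growth inhibition.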

Take `FC(F)(F)c1cccc2c(SCCc3n[nH]c(=S)o3)ccnc12`: the GI50 was 64.8 µM in the assay with COLO 205 colon; 48.7 µM in the assay on SF-295 CNS; 38 µM with NCI/ADR-RES ovarian; 22.6 µM in the assay on NCI-H522 lung; 36.3 µM in the assay with SNB-75 CNS; 85.6 µM in the assay with SF-268 CNS. Moreover, the GI50 with K-562 leukemia is 47.4 µM; with HOP-62 NSCLC, 94.2 µM. Moreover, the TGI is over 100 µM in the assay on COLO 205 colon; over 100 µM with SF-295 CNS; over 100 µM with NCI/ADR-RES ovarian; 90 µM with NCI-H522 lung; over 100 µM in the assay on SNB-75 CNS; over 100 µM in the assay with SF-268 CNS. Also, the TGI in the assay with K-562 leukemia and in the assay with HOP-62 NSCLC was over 100 µM in each case.
Turning to `O=C(N/N=C/c1ccc(Cl)cc1Cl)c1ccc2nc(-c3ccc(Cl)cc3)[nH]c2c1`, the GI50 with COLO 205 colon was 1.55 µM; with SF-295 CNS it was 1.86 µM; in the assay with NCI/ADR-RES ovarian, 1.83 µM; in the assay on NCI-H522 lung it was 2.24 µM; in the assay on SNB-75 CNS it was 1.59 µM; in the assay with SF-268 CNS, 2.08 µM. The GI50 was 0.969 µM in the assay with K-562 leukemia and 1.8 µM in the assay with HOP-62 NSCLC. Also, the TGI stood at 3.25 µM in the assay with COLO 205 colon; 3.5 µM in the assay with SF-295 CNS; 4.44 µM with NCI/ADR-RES ovarian; 5.85 µM in the assay on NCI-H522 lung; 3.62 µM in the assay with SNB-75 CNS; 4.35 µM with SF-268 CNS. The figures for the TGI in the assay with K-562 leukemia and with HOP-62 NSCLC were 3.23 µM and 4.1 µM, respectively.
As for `CNC1=C(C(=O)OC)SC(c2ccccc2)(c2ccccc2)SC1`, the GI50 in the assay with COLO 205 colon was 23.9 µM; in the assay on SF-295 CNS, 6.06 µM; in the assay on NCI/ADR-RES ovarian, 12 µM; with NCI-H522 lung it was 4.01 µM; in the assay on SNB-75 CNS, 26.1 µM; in the assay on SF-268 CNS it was 18.9 µM. Moreover, the GI50 with K-562 leukemia is 4.73 µM; in the assay on HOP-62 NSCLC it was 39.4 µM. For the same compound, the TGI was over 100 µM in the assay on COLO 205 colon; 39.4 µM in the assay on SF-295 CNS; 70.2 µM in the assay with NCI/ADR-RES ovarian; over 100 µM with NCI-H522 lung; over 100 µM in the assay on SNB-75 CNS; over 100 µM in the assay on SF-268 CNS. Besides, the TGI in the assay with K-562 leukemia and with HOP-62 NSCLC was over 100 µM throughout.
Regarding `c1ccc(B2OCC(C3OB(c4ccccc4)OC4COB(c5ccccc5)OC43)O2)cc1` (stereo not drawn), the TGI with COLO 205 colon, with SF-295 CNS, with NCI/ADR-RES ovarian, in the assay on NCI-H522 lung, with SNB-75 CNS and in the assay with SF-268 CNS was over 100 µM in each case. In addition, the TGI in the assay with K-562 leukemia and in the assay on HOP-62 NSCLC was over 100 µM each time.
As to `COc1ccc(-c2ccc(-c3ccc(C(=N)N)cn3)o2)cc1Cl`, the GI50 was 1.66 µM in the assay on COLO 205 colon; 1.65 µM with SF-295 CNS; 2.56 µM with NCI/ADR-RES ovarian; 1.85 µM with NCI-H522 lung; 1.66 µM in the assay with SNB-75 CNS; 2.67 µM in the assay on SF-268 CNS. Further, the figures for the GI50 with K-562 leukemia and with HOP-62 NSCLC were 2.7 µM and 3.68 µM, respectively. The TGI in the assay on COLO 205 colon is 3.18 µM; in the assay with SF-295 CNS it was 3.27 µM; in the assay with NCI/ADR-RES ovarian, 8.09 µM; with NCI-H522 lung it was 3.59 µM; with SNB-75 CNS, 3.51 µM; with SF-268 CNS, 8.38 µM. The TGI came to 7.5 µM in the assay on K-562 leukemia and 14.4 µM in the assay on HOP-62 NSCLC.
As for `Nc1cc(S(N)(=O)=O)ccc1SSc1ccc(S(N)(=O)=O)cc1N`, the TGI with COLO 205 colon, with SF-295 CNS, in the assay on NCI/ADR-RES ovarian, in the assay on NCI-H522 lung, in the assay with SNB-75 CNS and with SF-268 CNS was over 100 µM each time. Besides, the TGI in the assay on K-562 leukemia and in the assay with HOP-62 NSCLC was over 100 µM each time.
Consider `Cc1cc(C)c(S(=O)(=O)N(CCc2cccc(Br)c2)Cc2ccc(-c3cccc(S(C)(=O)=O)c3)cc2)c(C)c1`, for which the GI50 with COLO 205 colon, in the assay with SF-295 CNS, with NCI/ADR-RES ovarian, in the assay with NCI-H522 lung, in the assay with SNB-75 CNS and with SF-268 CNS was over 100 µM in each case. Further, the GI50 in the assay with K-562 leukemia and with HOP-62 NSCLC was over 100 µM throughout. Moreover, the TGI in the assay with COLO 205 colon, with SF-295 CNS, in the assay on NCI/ADR-RES ovarian, in the assay on NCI-H522 lung, in the assay on SNB-75 CNS and in the assay on SF-268 CNS was over 100 µM each time. Moreover, the TGI with K-562 leukemia and in the assay with HOP-62 NSCLC was over 100 µM in each case.
For `CCNNC(=O)[C@@H]1[C@H](c2cc(OC)c(OC)c(OC)c2)c2cc3c(cc2[C@H](O)[C@H]1CO)OCO3`, the GI50 with COLO 205 colon is 0.266 µM; with SF-295 CNS, 0.32 µM; in the assay on NCI/ADR-RES ovarian it was 0.509 µM; with NCI-H522 lung it was 0.288 µM; with SNB-75 CNS, 0.442 µM; in the assay on SF-268 CNS, 1.31 µM. The GI50 in the assay with K-562 leukemia was 0.349 µM; in the assay with HOP-62 NSCLC it was 0.561 µM. Also, the TGI with COLO 205 colon is 0.646 µM; in the assay on SF-295 CNS, over 100 µM; in the assay on NCI/ADR-RES ovarian, 17.7 µM; in the assay with NCI-H522 lung it was 0.833 µM; in the assay with SNB-75 CNS, over 100 µM; with SF-268 CNS it was over 100 µM. Also, the TGI in the assay on K-562 leukemia and in the assay with HOP-62 NSCLC was over 100 µM each time.
Regarding `COc1cc2c3c(n(CCCBr)c(=O)c2cc1OC)-c1ccc(F)cc1C3=O`, the GI50 in the assay with COLO 205 colon is 33.4 µM; with SF-295 CNS, 1.69 µM; in the assay with NCI/ADR-RES ovarian, 13.3 µM; in the assay with NCI-H522 lung, 4.9 µM; in the assay with SNB-75 CNS, 12.9 µM; in the assay with SF-268 CNS, 10.4 µM. The GI50 in the assay on K-562 leukemia was 16.3 µM; with HOP-62 NSCLC it was 4.21 µM. The TGI in the assay with COLO 205 colon was over 100 µM; with SF-295 CNS, 9.23 µM; in the assay on NCI/ADR-RES ovarian it was over 100 µM; in the assay with NCI-H522 lung, 36.3 µM; in the assay with SNB-75 CNS, 28.2 µM; with SF-268 CNS it was over 100 µM. For the same compound, the TGI was over 100 µM with K-562 leukemia and 25 µM with HOP-62 NSCLC.

The values above are taken from PubChem BioAssay (NCI).
